Where two headings read alike, the source gives them in different places.
Key:
[1] = Approximate retention times in oral tissues
Source text: The approximate retention times in oral tissues of six alkaloids found in extracts from Sanguinaria canadensis is shown in Table IV.

[2] = Visual plaque disclosure scoring in healthy volunteers (Table I); type: in vivo; conditions: for Mean Plaque Area Score, 1 Hour later / Mean Plaque Area Score, Baseline: visual assessment
Description: Sanguinarine chloride was compared to two standard disclosing dyes, erythrosine and sodium fluorescein. At weekly interval healthy volunteers underwent a 12-24 hour, no oral hygiene period. Subjects then used one of the following: erythrosine, sodium flourescein, or sanguinarine chloride. Subjects rinsed two times with 15 ml. of the rinse, while the erythrosine and sodium fluorescein were used according to customary practice. Color was evaluated under ambient light after erythrosine, under ambient light for sodium fluorescein, and under longwave UV fluorescent light for sanguinarine. The color was scored for location, amount, and area.
All of the disclosing agents colored soft dental deposits at gingival margins and at the dorsal surface of the tongue. […] Mean values of plaque were measured for all disclosants.
(§1) This was the oral rinse used for the tests described in Tables I, II, and III.

[3] = system: human dental plaque forming microorganisms; test: Reduction of dental plaque / inactivation of plaque forming microorganisms in vitro; type: cell-based
[4] = system: variety of microorganism; test: Antimicrobial properties (general statement); type: cell-based
[5] = type: in vivo
Source text: This would indicate that the retention of sanguinarine in plaque may be responsible for its clinical effectiveness in plaque assays, and that plaque may serve as a reservoir for sanguinarine.
as §1

[6] = In vivo plaque retention of sanguinarine (HPLC)
Source text: as §1

[7] = alkaloids found in extracts from Sanguinaria canadensis
[8] = human, in vivo, po, In Vivo Plaque Retention of Sanguinarine

| SMILES | Approximate Retention time (in oral tissues) [1, 7] [min] | Mean Plaque Area Score, 1 Hour later [2] | Mean Plaque Area Score, Baseline [2] | other results |
| --- | --- | --- | --- | --- |
| COc1ccc2c(c[n+](C)c3c4cc5c(cc4ccc23)OCO5)c1OC [Chelerythrine] |  |  |  | Approximate Retention time (in oral tissues) [1]: 16.5 to 17.0 min |
| COc1cc(OC)c2c(c[n+](C)c3c4cc5c(cc4ccc23)OCO5)c1OC [Chelilutine] | 15.5 to 16.0 |  |  |  |
| COc1cc2c(c3c[n+](C)c4c5cc6c(cc5ccc4c13)OCO6)OCO2 [Chelirubine] | ~7.5 |  |  |  |
| O=C1OC2(c3ccccc31)c1cc(I)c(O)c(I)c1Oc1c2cc(I)c(O)c1I [Erythrosine, reference compound] |  | 2.18 ± 0.5 | 2.86 ± 0.43 |  |
| COc1cc2ccc3c4c(OC)cc(OC)c(OC)c4c[n+](C)c3c2cc1OC [Sanguilutine] | 18.5 to 19.0 |  |  |  |
| C[n+]1cc2c3c(ccc2c2ccc4cc5c(cc4c21)OCO5)OCO3 [Sanguinarine chloride] |  | 2.86 ± 0.26 | 2.87 ± 0.23 | killing at 25 µg/mL ([3]; Homo sapiens, 25 micrograms per milliliter, read-out: reduction of dental plaque by inactivating plaque forming microorganisms): 100%; comparison with chlorhexidine in inhibition of human dental plaque forming microorganisms ([3]; in vitro, versus chlorhexidine (Hibitane)): compated favorably in vitro with chlorhexidine; plaque disclosure ([2]; sanguinarine chloride mouthwash): disclosed plaque effectively; duration of disclosure ([2]; versus erythrosine and sodium fluorescein): lasted significantly longer than for the other two disclosing dyes; antimicrobial properties [4]: strong antimicrobial properties |
| C[n+]1cc2c3c(ccc2c2ccc4cc5c(cc4c21)OCO5)OCO3 [Sanguinarine] | 9.5 to 10.0 |  |  | levels in saliva relative to anti-glycolytic effect [5]: high enough to exert an anti-glycolytic effect on saliva; level in plaque versus in vitro minimum inhibitory concentrations ([6]; HPLC, plaque): much higher in vitro minimum inhibitory concentrations; In Vivo Plaque Retention of Sanguinarine ([6]; human, in vivo, po, 1 h): 46 ug/g of wet plaque; concentration at 1 h [6, 8]: 56000 ng/g; concentration at 2 h [6, 8]: 27000 ng/g |
| COc1cc2ccc3c4c(OC)cc5c(c4c[n+](C)c3c2cc1OC)OCO5 [Sanguirubine] | 12.5 to 13.0 |  |  |  |
| O=C1OC2(c3ccc(O)cc3Oc3cc(O)ccc32)c2ccccc21 [Sodium Fluorescein, reference compound] |  | 1.74 ± 0.45 | 2.84 ± 0.22 |  |

From patent publication US4590061A, “Antimicrobial plaque disclosing agent” (priority 1985, dated 1986)
